Molecules are shown by their SMILES.

The record followed here is patent US20240287022A1 (Merck Sharp & Dohme LLC, priority 2021, published 2024).

Sequence of recombinant IL4I1 (Q96RQ9 22-567): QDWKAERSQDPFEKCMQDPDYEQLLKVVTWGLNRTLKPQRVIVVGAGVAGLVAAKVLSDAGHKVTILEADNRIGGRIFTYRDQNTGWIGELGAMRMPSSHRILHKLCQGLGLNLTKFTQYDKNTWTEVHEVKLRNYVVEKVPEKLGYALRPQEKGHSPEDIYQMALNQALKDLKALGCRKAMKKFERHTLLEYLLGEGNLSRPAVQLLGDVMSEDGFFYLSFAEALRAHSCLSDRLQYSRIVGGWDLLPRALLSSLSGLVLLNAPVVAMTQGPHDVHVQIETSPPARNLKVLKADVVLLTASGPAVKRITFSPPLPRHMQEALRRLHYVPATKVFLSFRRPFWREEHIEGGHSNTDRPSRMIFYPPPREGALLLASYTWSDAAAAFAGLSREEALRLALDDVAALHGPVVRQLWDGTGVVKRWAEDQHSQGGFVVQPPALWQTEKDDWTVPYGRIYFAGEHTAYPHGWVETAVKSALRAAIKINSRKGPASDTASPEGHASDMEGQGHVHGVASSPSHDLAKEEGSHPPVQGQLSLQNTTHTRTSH

This assay has as its target recombinant IL4I1 (Homo sapiens (Human), UniProt Q96RQ9). The experiment in a line: IL4I1 Enzymatic Assay (Amplex Red/HRP coupled H2O2 detection). Format: biochemical. To be noted: 1 nM IL4I1, 1 mM each Phe/Tyr/Trp, four-hour pre-incubation, 120 minutes reaction, top compound concentration of 10000 nM. In short, it runs like this:
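Recombinant IL4I1 (1 nM final) was pre-incubated 4 h at ambient temperature with compound in 50 mM Hepes pH 7.0, 0.005% Tween20. Reaction ran 120 min with 1 mM each Phe/Tyr/Trp, 0.05 mM Amplex Red and 1 U/mL HRP. Resorufin fluorescence (544/590 nm) was read, and EC50 fitted from ten-point 1:3 titrations (top 10000 nM) by four-parameter regression.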
What is called EC50 is the concentration that produces a half-maximal response. For `N#Cc1n[nH]c2ccc(Cc3cc4cnccc4[nH]c3=O)cc12` [Example 95, 5-((2-oxo-1,2-dihydro-1,6-naphthyridin-3-yl)methyl)-1H-indazole-3-carbonitrile], the EC50 amounted to 2.5 nM. Take `N#Cc1c[nH]c2ccc(Cc3cc4ccccc4[nH]c3=O)nc12` [Example 96, 5-((2-oxo-1,2-dihydroquinolin-3-yl)methyl)-1H-pyrrolo[3,2-b]pyridine-3-carbonitrile]: the EC50 worked out at 2 nM.

With `CC(C)(C#N)c1ccc(Cc2cc3ccccc3[nH]c2=O)cc1` [Example 97, 2-methyl-2-(4-((2-oxo-1,2-dihydroquinolin-3-yl)methyl)phenyl)propanenitrile], the half-maximal effective concentration (EC50) stood at 1.4 nM. Consider `N#CC1(c2ccc(Cc3cc4ccccc4[nH]c3=O)cc2)CC1` [Example 98, 1-(4-((2-oxo-1,2-dihydroquinolin-3-yl)methyl)phenyl)cyclopropane-1-carbonitrile], for which the EC50 worked out at 1 nM. Regarding `N#CC1(c2ccc(Cc3cc4ccccc4[nH]c3=O)cn2)COC1` [Example 99, 3-(5-((2-oxo-1,2-dihydroquinolin-3-yl)methyl)pyridin-2-yl)oxetane-3-carbonitrile], the concentration for a half-maximal effect (EC50) was 5.9 nM.

`CC(C)(C#N)c1ccc(Cc2cc3cnccc3[nH]c2=O)cc1` [Example 100, 2-methyl-2-(4-((2-oxo-1,2-dihydro-1,6-naphthyridin-3-yl)methyl)phenyl)propanenitrile]: the EC50 was found to be 7.3 nM. `O=c1[nH]c2cnccc2cc1Cc1cccc(OC(F)(F)F)c1` [Example 103, 3-(3-(trifluoromethoxy)benzyl)-1,7-naphthyridin-2(1H)-one]: the EC50 is 466 nM. With `O=c1[nH]c2cnccc2cc1Cc1ccccc1` [Example 104, 3-benzyl-1,7-naphthyridin-2(1H)-one], the EC50 was determined as 9180 nM. Next, `O=c1[nH]c2cccnc2cc1Cc1cccc(OC(F)(F)F)c1` [Example 105, 3-(3-(trifluoromethoxy)benzyl)-1,5-naphthyridin-2(1H)-one]: 619 nM; `O=c1[nH]c2ncccc2cc1Cc1cccc(OC(F)(F)F)c1` [Example 106, 3-(3-(trifluoromethoxy)benzyl)-1,8-naphthyridin-2(1H)-one]: 958 nM; `N#CC1(c2ccc(Cc3cc4ccccc4[nH]c3=O)cc2)CCOCC1` [Example 107, 4-(4-((2-oxo-1,2-dihydroquinolin-3-yl)methyl)phenyl)tetrahydro-2H-pyran-4-carbonitrile]: 3.2 nM.

For `O=C1OCCN1c1ccc(Cc2cc3ccccc3[nH]c2=O)cn1` [Example 108, 3-(5-((2-oxo-1,2-dihydroquinolin-3-yl)methyl)pyridin-2-yl)oxazolidin-2-one], the EC50 turned out to be 1.9 nM. Turning to `Cc1c(Cc2cc3ccccc3[nH]c2=O)cnn1C` [Example 109, 3-((1,5-dimethyl-1H-pyrazol-4-yl)methyl)quinolin-2(1H)-one], the EC50 amounted to 39.9 nM. Regarding `CC(C)(C)n1cc(Cc2cc3ccccc3[nH]c2=O)cn1` [Example 110, 3-((1-(tert-butyl)-1H-pyrazol-4-yl)methyl)quinolin-2(1H)-one], the EC50 amounted to 11.5 nM. `O=c1[nH]c2ccccc2cc1Cc1cnn(CC2(C(F)F)CC2)c1` [Example 111, 3-((1-((1-(difluoromethyl)cyclopropyl)methyl)-1H-pyrazol-4-yl)methyl)quinolin-2(1H)-one]: the EC50 was 24.6 nM. To `CCn1cc(Cc2cc3ccccc3[nH]c2=O)cn1` [Example 112, 3-((1-ethyl-1H-pyrazol-4-yl)methyl)quinolin-2(1H)-one] belongs 60.5 nM. In the case of `O=c1[nH]c2ccncc2cc1Cc1ccc(C2(O)CCC2)cc1` [Example 113, 3-(4-(1-hydroxycyclobutyl)benzyl)-1,6-naphthyridin-2(1H)-one], the EC50 is 7 nM. Turning to `O=c1[nH]c2ccncc2cc1Cc1ccc2ccccc2c1` [Example 115, 3-(naphthalen-2-ylmethyl)-1,6-naphthyridin-2(1H)-one], the EC50 came out at 1.4 nM.
